Here are results for two compounds from patent US20020123037A1, “Selection Procedure Using Prodrug/Enzyme System” (Cobra Therapeutics Limited, priority 1999, published 2002).

Experiment [1] concerns mammalian DT diaphorases. The following applies: cited from earlier work.
Experiment [2] deals with E.coli C600Hfl lysogens of λJG3J1 and λJG16C1. The experiment in a line: Induction of phage release from 5:1 mixture of lysogens JG3J1 (control) and JG16C1 (ntr) by CB1954. The class given is cell-based. As to conditions: for #### (Control phage in the section above) / No. cols / Phage particles / No. ntr phage (colonies containing λJG16C1 of colonies screened by PCR): 500 μM CB1954. The protocol: E.coli C600Hfl (obtained from Promega Cat No. D3131) were infected with λJG3J1 or λJG16C1 for 15min at 37 °C and spread onto kanamycin (30µg/ml) selective Lennox agar (LA) plates to select for lysogens. A single colony of each was picked, and the lysogenic bacteria were then grown aerobically at 37 °C to mid log phase in LB containing 0.1mM IPTG. Approximately 4.8 x 10^8 λJG3J1 lysogens and 9 x 10^7 λ JG16C1 lysogens (as estimated from the optical density; approximate 5:1 ratio without:with nitroreductase) were mixed in 5ml LB containing 0.1mM IPTG in the presence or absence of 500 µM CB1954 (provided by Cobra Therapeutics and diluted from a 50mM stock solution in 2:7 N-methyl pyrrolidinone:PEG300). The mixtures of bacterial lysogens were incubated at 37 °C with shaking and 50µl samples removed at intervals between 15 and 185 minutes after mixing.
Each sample was immediately mixed with 1ml LB and 100µl chloroform to kill any bacteria, briefly centrifuged to pellet debris, and the supernatant diluted 1 in 10 before using 10 µl to infect E. coli C600Hfl and plating onto LA containing kanamycin, to select for bacteria lysogenised by bacteriophage in the sample.
The number of colonies growing from the samples was counted the following day, and indicates the total number of bacteriophage present in the sample.
The polymerase chain reaction (PCR) was used to determine whether the bacteria in each colony contained λJG3J1 or λJG16C1. A number of individual colonies were picked at random from the most relevant plates and transferred to a 200µl PCR tube, lysed in a microwave for 2min and 35µl of PCR reaction mix [16mM (NH4)2SO4, 67mM Tris-Cl (pH 8.8 at 25 °C), 0.01% Tween-20 (Bioline), 0.2mM each dNTP, 1.5mM MgCl2, 1 U Biotaq (Bioline)] plus 0.25 µM primersJ
A tube containing reaction mix but no bacteria was used as a control to check for contamination of PCR reaction components. After 30 cycles (94 °C/5min; then 30x 94 °C/45s, 55 °C/45s, 72 °C/160s; then 72 °C/10min) the PCR products were analysed by gel electrophoresis to determine the product size. Lysogens containing λJG16C1 expressing ntr gave a 1.1kb product whereas λJG3J1 lysogens gave a 0.4kb product. All the colonies gave one or the other of these two bands but not both, and the negative control confirmed the absence of contamination in the PCR.

Experiment [3] concerns nitroreductase-expressing tumours. As to conditions: mice harbouring nitroreductase-expressing tumours; McNeish et al., 1998; cited from earlier work.
In experiment [4] the test system is colorectal, pancreatic and ovarian tumour cell lines. As to conditions: retroviral transfer of nitroreductase expression cassette; McNeish et al., 1998; Green et al., 1996; cited from earlier work.
In experiment [5] the target is wild type nitroreductase (Escherichia coli, UniProt P38489). As to conditions: CB1954 as substrate, reference 9, cited from earlier work.
Chain of wild type nitroreductase (P38489 whole entry): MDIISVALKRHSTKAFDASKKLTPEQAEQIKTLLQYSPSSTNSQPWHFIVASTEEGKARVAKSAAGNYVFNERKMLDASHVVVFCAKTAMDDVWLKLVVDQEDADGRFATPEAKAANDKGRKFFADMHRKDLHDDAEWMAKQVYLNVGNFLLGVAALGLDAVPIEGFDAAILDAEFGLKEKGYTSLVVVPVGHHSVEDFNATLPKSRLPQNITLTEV
Setting [6] is: 15 min after mixing & induction.
Where [7] appears, read: 30 min after mixing & induction.
The mark [8] stands for this setting: 45 min after mixing & induction.
The mark [9] stands for this setting: 60 min after mixing & induction.
Setting [10] is: 75 min after mixing & induction.
The mark [11] stands for this setting: 90 min after mixing & induction.
The mark [12] stands for this setting: 125 min after mixing & induction.
Setting [13] is: 155 min after mixing & induction.
The mark [14] stands for this setting: 185 min after mixing & induction.

Values joined by “and” are separate entries in the source; they are usually repeats but may differ in a detail not shown here. Equal values may be shown once.

On to `NC(=O)c1cc(N(CCCl)CCCl)c([N+](=O)[O-])cc1[N+](=O)[O-]` [SN 23862], for which, in experiment [1], the “activation by mammalian DT diaphorases” value was “not activated”.

Consider `NC(=O)c1cc(N2CC2)c([N+](=O)[O-])cc1[N+](=O)[O-]` [CB1954, 5-[aziridin-1-yl]-2,4-dinitrobenzamide], for which the “#### (Control phage in the section above)” value in experiment [2] (15 min, no PCR typing) was 0.6; in experiment [2] (30 min, no PCR typing) it was 1; in experiment [2] (45 min, no PCR typing), 2.2; in experiment [2] (60 min) it was 3.82; in experiment [2] (75 min), 4.79; in experiment [2] (90 min) it was 9.6. The results for the “#### (Control phage in the section above)” value in experiment [2] (125 min), in experiment [2] (155 min) and in experiment [2] (185 min) were 33.4, 54.7 and 72, respectively. For the same compound, the No. cols in experiment [2] (setting [6]) was found to be 3; in experiment [2] (setting [7]), 5; in experiment [2] (setting [8]), 11; in experiment [2] (setting [9]), 21; in experiment [2] (setting [10]) it was 35; in experiment [2] (setting [11]), 120. Besides, the No. cols in experiment [2] (setting [12]) was 320; in experiment [2] (setting [13]), 360; in experiment [2] (setting [14]), 360. Besides, the Phage particles in experiment [2] (setting [6]) was 0.6 10^−6 per ml; in experiment [2] (setting [7]) it was 1 10^−6 per ml; in experiment [2] (setting [8]), 2.2 10^−6 per ml; in experiment [2] (setting [9]), 4.2 10^−6 per ml; in experiment [2] (setting [10]) it was 7 10^−6 per ml; in experiment [2] (setting [11]), 24 10^−6 per ml. Also, the Phage particles in experiment [2] (setting [12]) was 64 10^−6 per ml; in experiment [2] (setting [13]), 72 10^−6 per ml; in experiment [2] (setting [14]), 72 10^−6 per ml. The “No. ntr phage (colonies containing λJG16C1 of colonies screened by PCR)” value in experiment [2] (60 min) was 1 of 11; in experiment [2] (75 min) it was 6 of 19; in experiment [2] (90 min), 18/30 and 18 of 30; in experiment [2] (125 min), 11 of 23; in experiment [2] (155 min) it was 6 of 25; in experiment [2] (185 min), 0 of 10. Besides, the “enrichment of λJG16C1” value in experiment [2] (90 minute time point, 60% versus 16% at mixing) was ~ 4 fold. Besides, the “proportion of λJG16C1 among recovered bacteriophage (peak)” value in experiment [2] (culture exposed to CB1954, at 90 minutes, λJG16C1 16% of the mixture at mixing) came to 60%. Also, the “peak concentration of the λJG16C1” value in experiment [2] (culture exposed to CB1954, at 125 minutes) is 3 x 10^7 per ml. Also, the “concentration of total bacteriophages released into the medium” value in experiment [2] (culture exposed to CB1954, at 155 minutes) is listed as 7.2 x 10^7 per ml; in experiment [2] (culture exposed to CB1954, at early times), 6 x 10^5 per ml. Further, the colony number in experiment [2] (culture exposed to CB1954, end of the timecourse) is recorded as ~ 360; in experiment [2] (culture exposed to CB1954, start of the timecourse), 3. Moreover, the “level of bacteriophage above background” value in experiment [2] (first ~60 minutes of exposure to CB1954) is given as “no increase”. The survival of mice result in experiment [3] was “Significantly increased survival and apparent cures”. In experiment [4], the “sensitisation of tumour cell lines to the prodrug” value is recorded as “can sensitise”. Further, the turnover rate kcat in experiment [5] was 6 s⁻¹. Also, the Km in experiment [5] (read-out: Michaelis constant KM) is 860 µM.
